# Assay results as given in patent US6319678A, “Process for glucuronidation screening” (PanVera Corporation, priority 1999, dated 2001).
# Legend:
# [1] = background; cited from earlier work
# [2] = background; cited from earlier work; remark: listed apart in the source
# UGT1A1 = conditions: as in patients with Gilbert's syndrome; background; cited from earlier work
# [3] = target: bacterial b-glucuronidase (Escherichia coli, UniProt P05804); test: Inhibition of b-glucuronidase cleavage of 4-methylumbelliferyl-b-D-glucuronide by competitor b-D-glucuronides (FIG. 2); format: biochemical; conditions: 20 μM 4-methylumbelliferyl-b-D-glucuronide, result in words
# Method: FIG. 1 Kinetic measurements of 4-methylumbelliferylb-D-glucuronide cleavage by b-gluuronidase. In part A, 100 μl assays were performed in triplicate using 100 mM Tris-HCl buffer, pH 7.4, containing 10 mM MgCl2, 0.1 μg/ml b-gluuronidase and 5 (.box-solid.), 20 (.tangle-solidup.), and 100 (.circle-solid.) μM, 4-methylumbelliferyl-b-D-glucuronide. Reactions were started by the addition of enzyme, incubated for indicated times at ambient temperature and then quenched with 100 μl of 0.1 M Na2 CO3, pH 9.5, containing 0.1% CHAPS. Fluorescence intensity was measured with a Beacon fluorescent polarization instrument (PanVera Corporation, Madison, Wis.) in intensity mode, using excitation and emission filters of 360 nm and 440 nm, respectively, and slit widths set at 10 nm. Part B, assays were performed in duplicate for 20 min as above with the indicated amount of 4-methylumbelliferyl-b-D-glucuronide. 4-Methyumbelliferone concentration was determined from a calibration curve.
# FIG. 2 Inhibition curves. Assays were performed as described in the legend to FIG. 1B with 20 .quadrature.M 4-methylumbelliferyl-b-D-glucuronide and the indicated amount of competitor b-D-glucuronide. Fluorescence intensity due to 4-methylumbelliferyl-b-D-glucuronide cleavage, in the absence of a competitor was arbitrarily assigned as 100%. Competitors, α-napthyl b-D-glucuronide (.box-solid.), .quadrature.-trifluoromethylumbelliferyl-b-D-glucuronide (o), .quadrature.-estradiol 3-.quadrature.b-D-glucuronide) (.tangle-solidup.), p-acetominophenyl b-D-glucuronide (.circle-solid.), 5.quadrature.-androstane-3α, 17α-diol-11-one-17-carboxylic acid-3-(b-D-glucuronide) (.tangle-soliddn.) and UDPGA (.E-backward.) were dissolved in 100 mM Tris-HCl, containing 10 mM MgCl2, pH 7.5. Tetrahydrocortisone 3-b-D-glucuronide (.diamond-solid.) was prepared in DMSO. The DMSO in reaction mixtures was 0.1% or less.
# Assay Principle: Cleavage of 4-methylumbelliferyl b-D-glucuronide by bacterial b-glucuronidase generates the highly fluorescent compound, 4-methylumbelliferone. Diverse b-D-glucuronides act as competitors of b-glucuronidase, thus providing the basis of a coupled assay method for detection of glucuronide production by recombinant UGT isozymes. […] The 4-methylumbelliferyl b-D-glucuronide cleavage assay can easily be adapted to high throughput formats to detect the presence of b-D glucuronides generated using recombinant glycosyl transferase preparations.
# Methods are included in text and figure legends. b-D-glucuronidase (Part G-7396), α-napthyl b-D-glucuronide, b-trifluoromethylumbelliferyl b-D-glucuronide, b-estradiol 3-(b-D-glucuronide), p-acetominophenyl b-D-glucuronide, 5 .quadrature.-androstane-3α, 17α-diol-11-one-17-carboxilic acid-3-(b-D-glucuronide), UDPGA and 4-methylumbelliferone b-D-glucuronide were obtained from Sigma, St. Louis Mo. Tetrahydrocortisone 3-b-D-glucuronide was obtained from Molecular Probes, Eugene, Oreg. Recombinant control and UGT1A6 membrane preparations were generated at PanVera Corporation and are commercially available from PanVera, Madison Wis. All other reagents were analytical grade or better and purchased from a variety of commercial sources.
# In order to show the feasibility of developing a high throughput inhibition assay, we examined the potential of a variety of structurally dissimilar commercially available b-D-glucuronides to act as inhibitors for the cleavage of 4-methylumbelliferyl-b-D-glucuronide. […]
# recombinant human UGT1A6 = target: T1, recombinant human UGT1A6 (Homo sapiens, UniProt P19224); test: Coupled assay: extracted residues of UGT1A6 / α-naphthol incubation added to b-glucuronidase fluorescence assay (FIG. 3A); format: biochemical
# T1 sequence (P19224 27-532): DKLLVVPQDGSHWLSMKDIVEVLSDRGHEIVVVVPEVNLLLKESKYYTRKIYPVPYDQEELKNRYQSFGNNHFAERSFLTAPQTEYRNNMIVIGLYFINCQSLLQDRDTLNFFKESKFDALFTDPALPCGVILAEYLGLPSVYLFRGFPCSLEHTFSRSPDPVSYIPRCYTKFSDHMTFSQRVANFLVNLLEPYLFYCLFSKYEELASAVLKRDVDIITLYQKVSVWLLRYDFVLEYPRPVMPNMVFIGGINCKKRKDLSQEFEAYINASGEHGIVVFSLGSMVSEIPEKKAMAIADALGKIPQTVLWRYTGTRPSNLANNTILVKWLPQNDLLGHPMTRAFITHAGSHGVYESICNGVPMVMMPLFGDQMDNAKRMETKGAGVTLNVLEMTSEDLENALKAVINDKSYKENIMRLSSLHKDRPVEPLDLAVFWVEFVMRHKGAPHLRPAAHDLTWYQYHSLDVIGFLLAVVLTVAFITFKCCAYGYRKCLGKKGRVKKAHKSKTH
# Excerpt: All other reagents were analytical grade or better and purchased from a variety of commercial sources.
# UGT1A6 = test: Accumulation of naphthyl glucuronide in UGT1A6 assay using [14C] UDPGA; format: in vitro ADME, human; conditions: parallel experiment using [14C] UDPGA, data not shown
# Method: Two approaches were taken to test the feasibility of coupling the UGT-dependent production of glucuronides to inhibition of fluorescent product formation by b-D-glucuronidase. The first involved extracting the UGT reaction products and adding them to the b-D-glucuronidase fluorescence assay reagents; the second involved adding the b-D-glucuronidase reaction components directly to the quenched UGT reaction. In the first approach, α-naphthyl b-D-glucuronide was generated in an incubation with recombinant human UGT1A6 and α-naphthol. Following extraction, 4-methylumbelliferyl-b-D-glucuronide assay reagents were added to the extracted, dried reaction residues. […] Inhibition of 4-methylumbelliferyl-b-D-glucuronide cleavage was dependent on the incubation time of the UGT1A6 assay, presumably reflecting increased .quadrature.-naphthyl glucuronide accumulation.
# Chain of bacterial b-glucuronidase (P05804 whole entry): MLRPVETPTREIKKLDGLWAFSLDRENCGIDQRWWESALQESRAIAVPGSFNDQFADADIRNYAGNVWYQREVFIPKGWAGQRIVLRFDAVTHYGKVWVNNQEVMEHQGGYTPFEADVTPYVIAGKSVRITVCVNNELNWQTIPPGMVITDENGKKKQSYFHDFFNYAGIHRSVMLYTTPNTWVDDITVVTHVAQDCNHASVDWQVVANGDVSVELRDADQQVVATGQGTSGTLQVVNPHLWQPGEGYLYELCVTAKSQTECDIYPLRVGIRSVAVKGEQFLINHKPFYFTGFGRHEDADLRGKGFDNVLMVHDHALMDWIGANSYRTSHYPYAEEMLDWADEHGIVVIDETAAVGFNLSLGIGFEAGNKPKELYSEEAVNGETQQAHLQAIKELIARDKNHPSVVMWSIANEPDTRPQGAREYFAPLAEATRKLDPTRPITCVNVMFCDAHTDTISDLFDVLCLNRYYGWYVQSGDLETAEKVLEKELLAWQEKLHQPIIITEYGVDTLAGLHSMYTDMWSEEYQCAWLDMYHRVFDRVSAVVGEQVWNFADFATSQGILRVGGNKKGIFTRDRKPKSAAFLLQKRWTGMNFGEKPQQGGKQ
compound,measurement,setting,value
CN1CC[C@]23c4c5ccc(O[C@@H]6O[C@H](C(=O)O)[C@@H](O)[C@H](O)[C@H]6O)c4O[C@H]2[C@@H](O)C=C[C@H]3[C@H]1C5 [3-glucuronide],activity towards morphine,[1],morphine antagonist
CN1CC[C@]23c4c5ccc(O)c4O[C@H]2[C@@H](O[C@@H]2O[C@H](C(=O)O)[C@@H](O)[C@H](O)[C@H]2O)C=C[C@H]3[C@H]1C5 [6-glucuronide of morphine],analgesic potency relative to the parent compound morphine,[2],more potent analgesic than the parent compound
CCc1c2c(nc3ccc(OC(=O)N4CCC(N5CCCCC5)CC4)cc13)-c1cc3c(c(=O)n1C2)COC(=O)[C@]3(O)CC [Irinotecan],toxicity associated with low expression of UGT1A1,UGT1A1,associated with the toxicity
O=C(O)[C@H]1O[C@H](OP(=O)(O)OP(=O)(O)OC[C@H]2O[C@@H](n3ccc(=O)[nH]c3=O)[C@H](O)[C@@H]2O)[C@H](O)[C@@H](O)[C@@H]1O [Uridine 5'-diphosphoglucuronic acid],inhibition of 4-methylumbelliferyl-b-D-glucuronide cleavage (production of 4-methylumbelliferone) by b-glucuronidase,[3],not an effective competitor over the range tested
"C[C@]12CC[C@@H]3c4ccc(O[C@@H]5O[C@H](C(=O)O)[C@@H](O)[C@H](O)[C@H]5O)cc4CC[C@H]3[C@@H]1CC[C@@H]2O [b-estradiol-3-(b-D-glucuronide), b-estradiol 3-(b-D-glucuronide)]",inhibition of 4-methylumbelliferyl-b-D-glucuronide cleavage (production of 4-methylumbelliferone) by b-glucuronidase,[3],strongest
same,inhibition of 4-methylumbelliferyl-b-D-glucuronide cleavage (production of 4-methylumbelliferone) by b-glucuronidase,[3]; listed as estradiol b-D-glucuronide,More potent inhibitors
Oc1cccc2ccccc12 [α-naphthol],interference of aglycone with the 4-methylumbelliferyl-b-D-glucuronide cleavage assay,recombinant human UGT1A6,does not interfere non-specifically
O=C(O)[C@H]1O[C@@H](Oc2cccc3ccccc23)[C@H](O)[C@@H](O)[C@@H]1O [α-naphthyl b-D-glucuronide],inhibition of 4-methylumbelliferyl-b-D-glucuronide cleavage by extracted residues of UGT1A6 assay,"recombinant human UGT1A6; FIG. 3A, 0.6 mg/ml UGT1A6, 2 mM UDPGA, 0.6 mM α-naphthol, 37° C, ethyl acetate extraction, vs control microsomes",inhibited 4-methylumbelliferyl-b-D-glucuronide cleavage
same,accumulation of naphthyl glucuronide in the UGT1A6 assay,UGT1A6,independently verified
same,inhibition of 4-methylumbelliferyl-b-D-glucuronide cleavage (production of 4-methylumbelliferone) by b-glucuronidase,[3],weakest
same,inhibition of 4-methylumbelliferyl-b-D-glucuronide cleavage (production of 4-methylumbelliferone) by b-glucuronidase,[3]; listed as α-naphthol b-D-glucuronide,weak competitive inhibitor
